Source: ChEMBL document CHEMBL4699662, “Identification and structure-activity relationship studies of small molecule inhibitors of the human cathepsin D” (Bioorg Med Chem, 2021)

What was measured:
in vitro [1] = settings: human, liver microsomes
in vitro [2] = settings: mouse, liver microsomes

Structure (SMILES)	microsomal CLint at 0.5 h, 1 µM (in vitro [1])	microsomal CLint at 0.5 h, 1 µM (in vitro [2])
CNS(=O)(=O)c1ccc(C)c(NC(=O)[C@@H](CC2CCCCC2)NC(=N)NC(=O)Cc2ccc(F)c(OC)c2)c1	287 µL/min/mg	326 µL/min/mg
Cc1ccc(S(=O)(=O)N(C)C)cc1NC(=O)[C@@H](CC1CCCCC1)NC(=N)NC(=O)Cc1ccc(Cl)c(Cl)c1	248 µL/min/mg	238 µL/min/mg
COc1ccc(CC(=O)NC(=N)N[C@H](CO)C(=O)Nc2cc(S(N)(=O)=O)ccc2C)cc1OC	22.5 µL/min/mg	15.5 µL/min/mg
COc1ccc(CC(=O)NC(=N)N[C@H](Cc2cccs2)C(=O)Nc2cc(S(N)(=O)=O)ccc2C)cc1OC	264 µL/min/mg	260 µL/min/mg
COc1ccc(CC(=O)NC(=N)N[C@H](CN2CCOCC2)C(=O)Nc2cc(S(N)(=O)=O)ccc2C)cc1OC	31.8 µL/min/mg	49.1 µL/min/mg
CNS(=O)(=O)c1ccc(C)c(NC(=O)[C@@H](CC2CCCCC2)NC(=N)NC(=O)Cc2ccc(OC)c(Cl)c2)c1	295 µL/min/mg	273 µL/min/mg
COc1ccc(CC(=O)NC(=N)N[C@H](CC2CCCCC2)C(=O)Nc2cc(S(=O)(=O)NC3CCCCC3)ccc2C)cc1OC	326 µL/min/mg	232 µL/min/mg
CNS(=O)(=O)c1ccc(C)c(NC(=O)[C@@H](CC2CCCCC2)NC(=N)NC(=O)Cc2cc(Cl)cc(C(F)(F)F)c2)c1	239 µL/min/mg	220 µL/min/mg
CCN(CC)S(=O)(=O)c1ccc(C)c(NC(=O)[C@@H](CC2CCCCC2)NC(=N)NC(=O)Cc2ccc(OC)c(OC)c2)c1	221 µL/min/mg	227 µL/min/mg
CNS(=O)(=O)c1ccc(C)c(NC(=O)[C@@H](CC2CCCCC2)NC(=N)NC(=O)Cc2ccc(OC)c(C(F)(F)F)c2)c1	188 µL/min/mg	215 µL/min/mg
COc1ccc(CC(=O)NC(=N)N[C@H](Cc2ccccc2)C(=O)Nc2cc(S(N)(=O)=O)ccc2C)cc1OC	191 µL/min/mg	193 µL/min/mg
COc1ccc(CC(=O)NC(=N)N[C@H](CCSC)C(=O)Nc2cc(S(N)(=O)=O)ccc2C)cc1OC	262 µL/min/mg	297 µL/min/mg
Cc1ccc(S(=O)(=O)N(C)C)cc1NC(=O)[C@@H](CC1CCCCC1)NC(=N)NC(=O)C1CCCc2ccccc21 (stereo partly drawn)	237 µL/min/mg	259 µL/min/mg
COc1ccc(CC(=O)NC(=N)N[C@H](CSC)C(=O)Nc2cc(S(N)(=O)=O)ccc2C)cc1OC	187 µL/min/mg	197 µL/min/mg
CC[C@@H](NC(=N)NC(=O)Cc1ccc(OC)c(OC)c1)C(=O)Nc1cc(S(N)(=O)=O)ccc1C	55.1 µL/min/mg	118 µL/min/mg
Cc1ccc(S(=O)(=O)N(C)C)cc1NC(=O)[C@@H](CC1CCCCC1)NC(=N)NC(=O)Cc1ccc2ccccc2c1	169 µL/min/mg	200 µL/min/mg
COc1ccc(CC(=O)NC(=N)N[C@H](Cn2cc(-c3ccccc3)nn2)C(=O)Nc2cc(S(N)(=O)=O)ccc2C)cc1OC	340 µL/min/mg	367 µL/min/mg
CCCC[C@@H](NC(=N)NC(=O)Cc1ccc(OC)c(OC)c1)C(=O)Nc1cc(S(N)(=O)=O)ccc1C	215 µL/min/mg	231 µL/min/mg
COc1ccc(CCC(=O)NC(=N)N[C@H](CC2CCCCC2)C(=O)Nc2cc(S(=O)(=O)N(C)C)ccc2C)cc1OC	169 µL/min/mg	234 µL/min/mg
CNS(=O)(=O)c1ccc(C)c(NC(=O)[C@@H](CC2CCCCC2)NC(=N)NC(=O)Cc2ccc(S(C)(=O)=O)cc2)c1	241 µL/min/mg	208 µL/min/mg
CCC[C@@H](NC(=N)NC(=O)Cc1ccc(OC)c(OC)c1)C(=O)Nc1cc(S(N)(=O)=O)ccc1C	89.3 µL/min/mg	266 µL/min/mg
CNS(=O)(=O)c1ccc(C)c(NC(=O)[C@@H](C)NC(=N)NC(=O)Cc2ccc(OC)c(OC)c2)c1	134 µL/min/mg	220 µL/min/mg
COc1ccc(CC(=O)NC(=N)N[C@@H](C(=O)Nc2cc(S(N)(=O)=O)ccc2C)C2=CCC=CC2)cc1OC	138 µL/min/mg	178 µL/min/mg
COc1ccc(CC(=O)NC(=N)N[C@H](CC2CCCCC2)C(=O)Nc2cc(S(=O)(=O)N(C)C)ccc2C)cc1F	241 µL/min/mg	241 µL/min/mg
CNS(=O)(=O)c1ccc(C)c(NC(=O)[C@@H](CC2CCCCC2)NC(=N)NC(=O)Cc2cc(C(F)(F)F)cc(C(F)(F)F)c2)c1	175 µL/min/mg	187 µL/min/mg

Structure (SMILES)	microsomal CLint at 0.5 h, 1 µM (in vitro [1])	microsomal CLint at 0.5 h, 1 µM (in vitro [2])
NC(=O)N1c2ccccc2C=Cc2ccccc21 [CARBAMAZEPINE]	6 µL/min/mg	7 µL/min/mg
COCC[C@@H](NC(=N)NC(=O)Cc1ccc(OC)c(OC)c1)C(=O)Nc1cc(S(N)(=O)=O)ccc1C	43.1 µL/min/mg	57.3 µL/min/mg
CNS(=O)(=O)c1ccc(C)c(NC(=O)[C@H](CC2CCCCC2)NC(=N)NC(=O)Cc2ccc(OC)c(OC)c2)c1	176 µL/min/mg	180 µL/min/mg
COC[C@@H](NC(=N)NC(=O)Cc1ccc(OC)c(OC)c1)C(=O)Nc1cc(S(N)(=O)=O)ccc1C	26.9 µL/min/mg	47.2 µL/min/mg
CNS(=O)(=O)c1ccc(C)c(NC(=O)[C@@H](CC2CCCCC2)NC(=N)NC(=O)Cc2cc(Cl)cc(OC)c2)c1	212 µL/min/mg	212 µL/min/mg
COc1ccc(CC(=O)NC(=N)N[C@H](CC2CCCCC2)C(=O)Nc2cc(S(N)(=O)=O)ccc2C)cc1OC	171 µL/min/mg	161 µL/min/mg
CNS(=O)(=O)c1ccc(C)c(NC(=O)[C@@H](Cc2ccccc2)NC(=N)NC(=O)Cc2ccc(OC)c(OC)c2)c1	131 µL/min/mg	149 µL/min/mg
COc1ccc(CC(=O)NC(=N)N[C@H](Cc2cc3ccccc3s2)C(=O)Nc2cc(S(N)(=O)=O)ccc2C)cc1OC	251 µL/min/mg	239 µL/min/mg
COc1ccc(CC(=O)NC(=N)N[C@@H](C(=O)Nc2cc(S(N)(=O)=O)ccc2C)C2CCCCC2)cc1OC	225 µL/min/mg	210 µL/min/mg
COc1ccc(CC(=O)NC(=N)NCC(=O)Nc2cc(S(N)(=O)=O)ccc2C)cc1OC	18 µL/min/mg	20 µL/min/mg
Cc1ccc(S(=O)(=O)N(C)C)cc1NC(=O)[C@@H](CC1CCCCC1)NC(=N)NC(=O)Cc1ccc(C(F)(F)F)cc1	291 µL/min/mg	282 µL/min/mg
COc1ccc(CC(=O)NC(=N)N[C@H](CC2CCCCC2)C(=O)Nc2cc(S(=O)(=O)NC3CC3)ccc2C)cc1OC	179 µL/min/mg	354 µL/min/mg
CNS(=O)(=O)c1ccc(C)c(NC(=O)[C@H](NC(=N)NC(=O)Cc2ccc(OC)c(OC)c2)C2CCCCC2)c1	211 µL/min/mg	173 µL/min/mg
Cc1ccc(S(=O)(=O)N(C)C)cc1NC(=O)[C@@H](CC1CCCCC1)NC(=N)NC(=O)Cc1ccc(F)c(F)c1	163 µL/min/mg	264 µL/min/mg
COc1ccc(CC(=O)NC(=N)N[C@@H](C(=O)Nc2cc(S(N)(=O)=O)ccc2C)C(C)(C)C)cc1OC	108 µL/min/mg	211 µL/min/mg
Cc1ccc(S(=O)(=O)N(C)C)cc1NC(=O)[C@@H](CC1CCCCC1)NC(=N)NC(=O)Cc1cc(C(F)(F)F)cc(C(F)(F)F)c1	246 µL/min/mg	258 µL/min/mg
Cc1ccc(S(=O)(=O)N(C)C)cc1NC(=O)[C@@H](CC1CCCCC1)NC(=N)NC(=O)Cc1ccccc1C(F)(F)F	208 µL/min/mg	244 µL/min/mg
COc1ccc(CC(=O)NC(=N)N[C@H](CC2CCCCC2)C(=O)Nc2cc(S(=O)(=O)N3CCN(C)CC3)ccc2C)cc1OC	271 µL/min/mg	212 µL/min/mg
COc1ccc(CC(=O)NC(=N)N[C@H](CC(C)C)C(=O)Nc2cc(S(N)(=O)=O)ccc2C)cc1OC	160 µL/min/mg	102 µL/min/mg
CNS(=O)(=O)c1ccc(C)c(NC(=O)[C@@H](CC2CCCCC2)NC(=N)NC(=O)Cc2ccc(Cl)c(Cl)c2)c1	336 µL/min/mg	176 µL/min/mg
CNS(=O)(=O)c1ccc(C)c(NC(=O)[C@H](NC(=N)NC(=O)Cc2ccc(OC)c(OC)c2)c2ccccc2)c1	281 µL/min/mg	270 µL/min/mg
CCOC[C@@H](NC(=N)NC(=O)Cc1ccc(OC)c(OC)c1)C(=O)Nc1cc(S(N)(=O)=O)ccc1C	59.1 µL/min/mg	86.8 µL/min/mg
COc1ccc(CC(=O)NC(=N)N[C@H](CC2CCCCC2)C(=O)Nc2cc(S(=O)(=O)N3CCOCC3)ccc2C)cc1OC	212 µL/min/mg	237 µL/min/mg
COc1ccc(CC(=O)NC(=N)N[C@H](Cc2ccccc2F)C(=O)Nc2cc(S(N)(=O)=O)ccc2C)cc1OC	171 µL/min/mg	149 µL/min/mg
